Measured values from ChEMBL document CHEMBL1201862, “PubChem BioAssay data set” (2004).
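Results reflect a 48-hour exposure of cells in 96-well plates to compound at five concentrations. Abbreviation: GI50, concentration required for 50% inhibition of growth.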 Activity calls are given as the source filed them. Rule as the data show it: active = GI50 up to about 1.1 µM and inactive = higher.

Tests used:
Test in all cases: DTP human tumour cell line panel, 48 h
786-0 = tested on: 786-0
A498 = tested on: A498
A549 = tested on: A549
ACHN = tested on: ACHN
CAKI-1 = tested on: CAKI-1
CCRF-CEM = tested on: CCRF-CEM
COLO 205 = tested on: COLO 205
DLD-1 = tested on: DLD-1
DMS-114 = tested on: DMS-114
DMS-273 = tested on: DMS-273
EKVX = tested on: EKVX
HCC 2998 = tested on: HCC 2998
HCT-116 = tested on: HCT-116
HCT-15 = tested on: HCT-15
HL-60 = tested on: HL-60
HOP-18 = tested on: HOP-18
HOP-62 = tested on: HOP-62
HOP-92 = tested on: HOP-92
HT-29 = tested on: HT-29
IGROV-1 = tested on: IGROV-1
K562 = tested on: K562
KM-20L2 = tested on: KM-20L2
KM12 = tested on: KM12
LOX IMVI = tested on: LOX IMVI
LXFL 529 = tested on: LXFL 529
M14 = tested on: M14
M19-MEL = tested on: M19-MEL
MOLT-4 = tested on: MOLT-4
Malme-3M = tested on: Malme-3M
NCI-H226 = tested on: NCI-H226
NCI-H23 = tested on: NCI-H23
NCI-H460 = tested on: NCI-H460
NCI-H522 = tested on: NCI-H522
OVCAR-3 = tested on: OVCAR-3
OVCAR-4 = tested on: OVCAR-4
OVCAR-5 = tested on: OVCAR-5
OVCAR-8 = tested on: OVCAR-8
RPMI-8226 = tested on: RPMI-8226
RXF 393 = tested on: RXF 393
RXF 631 = tested on: RXF 631
SF-268 = tested on: SF-268
SF-295 = tested on: SF-295
SF-539 = tested on: SF-539
SK-MEL-28 = tested on: SK-MEL-28
SK-MEL-2 = tested on: SK-MEL-2
SK-MEL-5 = tested on: SK-MEL-5
SK-OV-3 = tested on: SK-OV-3
SN12C = tested on: SN12C
SNB-19 = tested on: SNB-19
SNB-75 = tested on: SNB-75
SNB-78 = tested on: SNB-78
SR = tested on: SR
SW-620 = tested on: SW-620
TK-10 = tested on: TK-10
U-251 = tested on: U-251
UACC-257 = tested on: UACC-257
UACC-62 = tested on: UACC-62
UO-31 = tested on: UO-31
XF498 = tested on: XF498

Measured: GI50

CCOC(=O)C1C(c2ccccc2)=C(c2ccccc2)C(c2ccccc2)=C1c1ccccc1
72.1 µM: HCT-15
inactive: 786-0 21 µM | A498 20 µM | A549 33.7 µM | ACHN 28.6 µM | CAKI-1 > 65.3 µM | CCRF-CEM > 79.3 µM | COLO 205 > 100 µM | DLD-1 > 100 µM | DMS-114 27.8 µM | DMS-273 31.3 µM | EKVX > 88.3 µM | HCC 2998 > 100 µM | HCT-116 20.8 µM | HL-60 57.1 µM | HOP-18 23.7 µM | HOP-62 12.6 µM | HOP-92 12.4 µM | HT-29 > 100 µM | IGROV-1 29.2 µM | K562 35 µM | KM-20L2 > 100 µM | KM12 > 100 µM | LOX IMVI 58.9 µM | LXFL 529 41.8 µM | M14 57.4 µM | M19-MEL 41.4 µM | MOLT-4 50 µM | Malme-3M 40.9 µM | NCI-H226 > 39.2 µM | NCI-H23 34.2 µM | NCI-H460 51.8 µM | NCI-H522 49.8 µM | OVCAR-3 26.3 µM | OVCAR-4 18.2 µM | OVCAR-5 > 100 µM | OVCAR-8 25.7 µM | RPMI-8226 19.6 µM | RXF 393 15.3 µM | RXF 631 50.5 µM | SF-268 43 µM | SF-295 23.6 µM | SF-539 29.7 µM | SK-MEL-28 54.1 µM | SK-MEL-2 26.9 µM | SK-MEL-5 46.7 µM | SK-OV-3 22.6 µM | SN12C 50.7 µM | SNB-19 18.8 µM | SNB-75 13.2 µM | SNB-78 27.5 µM | SR 46.8 µM | SW-620 81.5 µM | TK-10 23.4 µM | U-251 21.2 µM | UACC-257 > 94.6 µM | UACC-62 19.3 µM | UO-31 45.9 µM | XF498 21.9 µM

COC(=O)[C@@]12CC(C(C)C)[C@H]3CC(C(=O)C=C1OC)[C@H]32 (stereo partly drawn)
inactive: 786-0 > 100 µM | A498 > 100 µM | A549 > 100 µM | ACHN > 100 µM | CAKI-1 > 100 µM | CCRF-CEM 47.5 µM | COLO 205 > 100 µM | DLD-1 > 100 µM | DMS-114 > 100 µM | DMS-273 > 100 µM | EKVX > 100 µM | HCC 2998 > 100 µM | HCT-116 > 100 µM | HL-60 > 100 µM | HOP-18 > 100 µM | HOP-62 > 100 µM | HOP-92 > 100 µM | HT-29 > 100 µM | IGROV-1 > 100 µM | K562 85.5 µM | KM-20L2 > 100 µM | KM12 > 100 µM | LXFL 529 > 100 µM | M14 > 100 µM | M19-MEL > 100 µM | MOLT-4 > 100 µM | Malme-3M > 100 µM | NCI-H23 > 100 µM | NCI-H460 > 100 µM | OVCAR-3 > 100 µM | OVCAR-4 > 100 µM | OVCAR-5 > 100 µM | OVCAR-8 > 100 µM | RPMI-8226 > 100 µM | RXF 393 > 100 µM | RXF 631 > 100 µM | SF-268 > 100 µM | SF-295 > 100 µM | SF-539 > 100 µM | SK-MEL-28 > 100 µM | SK-MEL-2 > 100 µM | SK-MEL-5 > 100 µM | SK-OV-3 > 100 µM | SN12C > 100 µM | SNB-19 > 100 µM | SNB-75 > 100 µM | SNB-78 > 100 µM | SW-620 > 100 µM | TK-10 > 100 µM | U-251 > 100 µM | UACC-257 > 100 µM | UACC-62 > 100 µM | XF498 > 100 µM
> 100 µM: HCT-15
